Values of other authors in patent publication US20090022786A1, “Oral pharmaceutical dosage form and manufacturing method thereof” (YUNG SHIN PHARM. IND. CO., LTD., priority 2007, published 2009).
Counter-ions that a name gives are not always drawn. Like-named read-outs stand apart in the source and are kept apart here.

Assays:
[1] = not given; remark: listed apart in the source
[2] = not given; remark: listed apart in the source
gastric acid secretion = conditions: oral
[3] = not given; remark: listed apart in the source
[4] = as glucuronate- or sulfate-associated form

Fraction eliminated with urine (in 24 hours)	Elimination half-life (in vivo) [min]	Fraction eliminated with the faeces (in vivo) [%]	Absorption after oral administration (oral)	Time of maximum plasma concentration (oral) [min]	Stability at room temperature ([1]; room temperature)	Solubility in water [2]	Solubility in chloroform ([2]; chloroform)	Solubility in ethanol ([2]; ethanol)	Solubility in methanol ([2]; methanol)	Fraction eliminated with the faeces after biliary secretion [3, 4]	Fraction eliminated with urine [3, 4]	Binding to plasma protein ([3]; in vivo)	Half-life ([3]; in vivo) [min]	Fraction entering systematic circulation ([3]; oral)	Peak value of plasma concentration ([3]; oral single dose of 50 mg) [µg/mL]	Time of maximum plasma concentration ([3]; oral single dose of 50 mg) [h]	SMILES	Time to inhibition of gastric acid secretion (gastric acid secretion) [min]	Stability to humidity and light ([1]; humidity and light)
64-73%	20 to 40	15	rapidly absorbed	15 to 30	very unstable	soluble											CCCCC(C)(O)C/C=C/[C@H]1[C@H](O)CC(=O)[C@@H]1CCCCCCC(=O)OC (mixture of isomers) [Misoprostol, (±) methyl 11α,16-dihydroxy-16-methyl-9-oxoprost-13E-en-1-oate]	≤ 30	
						somewhat	extremely insoluble	soluble	soluble	1/30	⅔	More than 90%	60 to 120	50-60%	1.5	1 to 2	O=C(O)Cc1ccccc1Nc1c(Cl)cccc1Cl [Diclofenac sodium, 2-[(2,6-dichlorophenyl)amino] benzene acetic acid, monosodium salt]		accessible to be destroyed by humidity and light
